Test results as given in ChEMBL document CHEMBL3301562, “MMV Box screening against Plasmodium falciparum protein kinases and aminoacyl tRNA synthetases”.

What was measured:
Format in all cases: functional
Lysine--tRNA ligase = Lysine--tRNA ligase (Plasmodium falciparum (isolate 3D7), UniProt Q8IDJ8); assay: MMV: KRS recombinant Plasmodium falciparum Lysyl-tRNA-synthetase, assay with yeast tRNA, ATP, and lysine and 3 uM MMV malaria box compound, assay read out with kinase glo as % inhibition.
[1] = molecular target: T1, Mitogen-activated protein kinase (Plasmodium falciparum, UniProt Q25917); assay: Final concentrations were 1 uM ATP, 0.5 mM DTT, 1 mM MgCl2, 0.5 mg/mL BSA, and 10 ug/ml MAP2 in a buffer of 50 mM HEPES (pH 7.0). 0.5 mg/mL histone III-S served as the substrate (13); 100 uM AMP-PNP, an ATP analog, was used as a control inhibitor. Incubation time was 4 hours.
T1 sequence (Q25917 whole entry): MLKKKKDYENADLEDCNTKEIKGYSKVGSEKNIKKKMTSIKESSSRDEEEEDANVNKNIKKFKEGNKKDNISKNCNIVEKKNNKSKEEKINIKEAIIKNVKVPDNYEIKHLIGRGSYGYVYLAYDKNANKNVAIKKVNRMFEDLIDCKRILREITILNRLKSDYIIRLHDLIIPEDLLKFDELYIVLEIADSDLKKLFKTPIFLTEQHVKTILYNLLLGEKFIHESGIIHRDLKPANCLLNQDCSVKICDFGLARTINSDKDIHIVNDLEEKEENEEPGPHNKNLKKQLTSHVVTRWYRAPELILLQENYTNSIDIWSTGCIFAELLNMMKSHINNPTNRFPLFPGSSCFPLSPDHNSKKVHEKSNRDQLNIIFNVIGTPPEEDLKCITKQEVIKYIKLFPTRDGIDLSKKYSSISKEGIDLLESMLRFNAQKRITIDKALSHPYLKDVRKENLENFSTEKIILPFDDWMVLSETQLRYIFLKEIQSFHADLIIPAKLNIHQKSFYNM

[2] = molecular target: Calcium-dependent protein kinase 1 (Plasmodium falciparum, UniProt P62344); assay: MMV: CDPK1 Protein kinase inhibition assay using recombinant PfCDPK1, syntide 2 peptide substrate, ATP and KinaseGlo to measure % inhibition at 1 uM MMV box compound.
[3] = molecular target: T2, Calcium-dependent protein kinase 4 (Plasmodium falciparum (isolate 3D7), UniProt Q8IBS5); assay: MMV: CDPK4 Protein kinase inhibition assay using recombinant PfCDPK4, syntide2 peptide substrate, ATP and KinaseGlo to measure % inhibition at 1 uM MMV box compound.
T2 sequence (Q8IBS5 whole entry): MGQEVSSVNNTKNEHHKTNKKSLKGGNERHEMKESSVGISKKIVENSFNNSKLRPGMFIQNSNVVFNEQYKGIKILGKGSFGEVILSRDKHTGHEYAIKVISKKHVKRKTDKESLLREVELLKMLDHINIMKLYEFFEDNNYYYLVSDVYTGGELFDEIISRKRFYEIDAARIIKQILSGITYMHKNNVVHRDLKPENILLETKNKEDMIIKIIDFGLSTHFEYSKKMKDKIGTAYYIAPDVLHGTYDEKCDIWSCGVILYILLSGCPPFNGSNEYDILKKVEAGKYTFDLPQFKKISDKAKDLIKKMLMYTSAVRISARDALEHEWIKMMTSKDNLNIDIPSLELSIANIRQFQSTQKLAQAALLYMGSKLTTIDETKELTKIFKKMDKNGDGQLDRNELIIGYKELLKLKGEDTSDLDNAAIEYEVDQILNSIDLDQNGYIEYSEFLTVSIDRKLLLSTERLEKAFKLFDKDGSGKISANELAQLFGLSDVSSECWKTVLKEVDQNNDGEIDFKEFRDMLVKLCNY

[4] = molecular target: T3, Putative uncharacterized protein pk7 (Plasmodium falciparum, UniProt O96214); assay: Final concentrations were 1 uM ATP, 2 mM DTT, 20 mM MgCl2, 2 mM MnCl2, 0.01% BSA, and 6 ug/ml PK7, in a buffer of 20 mM Tris-HCl (pH 7.5). The enzyme itself was the only substrate present (since autophosphorylation occurs); 100 uM 1NA-PP1 was used as a control inhibitor. Incubation time was 3 hours.
T3 sequence (O96214 whole entry): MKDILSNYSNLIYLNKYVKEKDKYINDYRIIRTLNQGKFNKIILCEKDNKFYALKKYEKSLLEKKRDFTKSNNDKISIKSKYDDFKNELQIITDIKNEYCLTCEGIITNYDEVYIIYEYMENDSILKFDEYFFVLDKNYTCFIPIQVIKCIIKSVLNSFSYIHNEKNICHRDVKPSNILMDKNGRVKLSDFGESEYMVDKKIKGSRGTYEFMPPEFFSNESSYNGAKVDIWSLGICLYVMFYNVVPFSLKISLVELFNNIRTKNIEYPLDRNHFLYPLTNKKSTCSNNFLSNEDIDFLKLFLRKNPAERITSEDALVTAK

[5] = molecular target: T4, Cdk-related protein kinase 6 (Plasmodium falciparum, UniProt O77239); assay: Final concentrations were 1.5 uM ATP, 5 mM MnCl2, and 15 ug/ml PK6 in a buffer of 100 mM Tris-HCl (pH 7.5). 50 ug/mL MBP was provided as the substrate; 10 uM staurosporine was used as a control inhibitor. Incubation time was 3 hours and 40 minutes.The catalytic activity of each kinase was considered proportional to ATP consumed, as determined from measurements of residual [ATP] with the luciferase-based reagent Kinase-Glo (Promega) following incubation. Luminescence (proportional to residual [ATP]) was measured on the plate readers FLx800 (BioTek Instruments, Winooski, VT, USA) and MicroBeta2.
T4 sequence (O77239 whole entry): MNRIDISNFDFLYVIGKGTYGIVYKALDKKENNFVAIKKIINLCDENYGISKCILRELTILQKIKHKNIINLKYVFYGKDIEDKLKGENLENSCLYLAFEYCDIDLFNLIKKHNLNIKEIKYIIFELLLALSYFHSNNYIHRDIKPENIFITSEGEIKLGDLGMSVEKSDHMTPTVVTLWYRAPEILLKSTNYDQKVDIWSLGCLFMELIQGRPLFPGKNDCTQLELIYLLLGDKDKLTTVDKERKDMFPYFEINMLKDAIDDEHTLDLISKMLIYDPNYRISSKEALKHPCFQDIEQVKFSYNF

Proline--tRNA ligase = molecular target: T5, Proline--tRNA ligase (Plasmodium falciparum (isolate 3D7), UniProt Q8I5R7); assay: MMV: ProRS recombinant Plasmodium falciparum Prolyl-tRNA-synthetase, assay with yeast tRNA, ATP, and proline and 3 uM MMV malaria box compound, assay read out with kinase glo as % inhibition.
T5 sequence (Q8I5R7 whole entry): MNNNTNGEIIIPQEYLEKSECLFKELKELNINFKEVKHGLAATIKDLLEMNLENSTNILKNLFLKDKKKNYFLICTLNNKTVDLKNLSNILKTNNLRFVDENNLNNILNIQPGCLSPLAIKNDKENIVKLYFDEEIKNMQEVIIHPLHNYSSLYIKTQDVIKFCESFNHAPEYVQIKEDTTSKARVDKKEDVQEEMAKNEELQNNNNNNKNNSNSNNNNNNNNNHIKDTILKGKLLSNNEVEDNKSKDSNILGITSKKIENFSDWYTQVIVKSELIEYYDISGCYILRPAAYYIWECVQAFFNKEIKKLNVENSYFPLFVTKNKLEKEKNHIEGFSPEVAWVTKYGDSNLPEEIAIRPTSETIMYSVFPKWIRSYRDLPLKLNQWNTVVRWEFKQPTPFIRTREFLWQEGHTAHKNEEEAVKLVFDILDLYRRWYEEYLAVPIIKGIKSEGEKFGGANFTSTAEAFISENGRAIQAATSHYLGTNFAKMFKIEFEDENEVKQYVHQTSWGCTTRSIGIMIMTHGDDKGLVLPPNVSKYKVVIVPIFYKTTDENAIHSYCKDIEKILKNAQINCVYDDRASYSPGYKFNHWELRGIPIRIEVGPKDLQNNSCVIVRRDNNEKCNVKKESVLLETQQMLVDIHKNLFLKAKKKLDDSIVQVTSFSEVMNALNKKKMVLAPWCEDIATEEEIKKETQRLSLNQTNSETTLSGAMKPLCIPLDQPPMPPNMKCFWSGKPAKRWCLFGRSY

Sequence of Calcium-dependent protein kinase 1 (P62344 whole entry): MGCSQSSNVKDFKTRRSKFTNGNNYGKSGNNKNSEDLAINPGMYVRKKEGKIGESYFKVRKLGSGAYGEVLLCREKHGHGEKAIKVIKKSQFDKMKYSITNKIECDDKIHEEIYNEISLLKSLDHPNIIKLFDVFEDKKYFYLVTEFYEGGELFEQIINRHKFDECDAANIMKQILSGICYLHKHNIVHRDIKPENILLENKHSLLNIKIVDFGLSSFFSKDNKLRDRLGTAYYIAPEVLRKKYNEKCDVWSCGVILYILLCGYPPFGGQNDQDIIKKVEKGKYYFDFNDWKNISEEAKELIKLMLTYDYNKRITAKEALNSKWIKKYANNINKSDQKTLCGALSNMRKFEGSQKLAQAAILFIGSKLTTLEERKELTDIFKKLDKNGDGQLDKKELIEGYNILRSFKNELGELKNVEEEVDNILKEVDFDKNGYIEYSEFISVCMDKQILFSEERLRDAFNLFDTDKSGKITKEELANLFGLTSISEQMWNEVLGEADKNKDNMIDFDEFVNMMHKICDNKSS
Sequence of Lysine--tRNA ligase (Q8IDJ8 whole entry): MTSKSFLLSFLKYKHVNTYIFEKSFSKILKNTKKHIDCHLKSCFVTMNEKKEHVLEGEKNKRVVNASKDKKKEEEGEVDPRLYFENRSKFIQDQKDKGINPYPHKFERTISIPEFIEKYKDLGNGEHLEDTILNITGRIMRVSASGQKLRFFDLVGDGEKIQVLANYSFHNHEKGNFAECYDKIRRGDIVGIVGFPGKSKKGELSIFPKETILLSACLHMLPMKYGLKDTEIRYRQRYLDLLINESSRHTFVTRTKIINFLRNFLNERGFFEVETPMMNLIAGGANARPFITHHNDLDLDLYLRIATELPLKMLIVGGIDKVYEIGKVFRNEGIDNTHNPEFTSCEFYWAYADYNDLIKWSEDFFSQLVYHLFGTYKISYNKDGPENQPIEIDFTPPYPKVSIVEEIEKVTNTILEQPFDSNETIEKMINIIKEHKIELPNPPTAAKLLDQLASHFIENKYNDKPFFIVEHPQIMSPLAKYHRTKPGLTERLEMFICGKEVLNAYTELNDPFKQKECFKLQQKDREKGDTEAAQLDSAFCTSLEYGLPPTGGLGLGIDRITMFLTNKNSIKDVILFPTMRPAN

SMILES	IC50 (Lysine--tRNA ligase)	IC50 [1]	IC50 [2]	IC50 [3]	IC50 [4]	IC50 [5]	IC50 (Proline--tRNA ligase)
CN(C)CCCNc1c2ccccc2nc2ccccc12	> 2500 nM	> 1000 nM	> 1000 nM	> 1000 nM	> 1000 nM	> 1000 nM	> 2500 nM
COc1ccc(-c2c(C)nn3c(N)c(C#N)cnc23)cc1OC	> 2500 nM	> 1000 nM	> 1000 nM	> 1000 nM	> 1000 nM	> 1000 nM	> 2500 nM
CSC1=NC(=Nc2c(C)cccc2C)C2(CCC(C(C)(C)C)CC2)N1c1ccc(Cl)cc1 (configuration not stated)	> 2500 nM	> 1000 nM	> 1000 nM	> 1000 nM	> 1000 nM	> 1000 nM	> 2500 nM
COc1ccc(-c2cc3c(SCC(=O)Nc4cc(C(F)(F)F)ccc4Cl)nccn3n2)cc1	> 2500 nM	> 1000 nM	> 1000 nM	> 1000 nM	> 1000 nM	> 1000 nM	> 2500 nM
Cc1cc(Nc2ccc3ccccc3c2)n2ncnc2n1	> 2500 nM	> 1000 nM	> 1000 nM	> 1000 nM	> 1000 nM	> 1000 nM	> 2500 nM
COc1ccc(-c2nc(NC(=O)CS(=O)(=O)c3ccc(F)cc3)sc2C)cc1	> 2500 nM	> 1000 nM	> 1000 nM	> 1000 nM	> 1000 nM	> 1000 nM	> 2500 nM
O=C(O)C1Cc2c([nH]c3ccccc23)C(c2ccc(Cl)cc2Cl)N1 (configuration not stated)	> 2500 nM	> 1000 nM	> 1000 nM	> 1000 nM	> 1000 nM	> 1000 nM	> 2500 nM
COc1cccc(NC(=O)[C@H](C(C)C)n2c(=O)[nH]c3ccccc3c2=O)c1	> 2500 nM	> 1000 nM	> 1000 nM	> 1000 nM	> 1000 nM	> 1000 nM	> 2500 nM
CCOC(=O)c1cn(CC)c2cc(N(C)CCc3ccc(OC)c(OC)c3)c(F)cc2c1=O	> 2500 nM	> 1000 nM	> 1000 nM	> 1000 nM	> 1000 nM	> 1000 nM	> 2500 nM
CC(C)(C)c1ccc(O)c(CNC2CCCCC2)c1	> 2500 nM	> 1000 nM	> 1000 nM	> 1000 nM	> 1000 nM	> 1000 nM	> 2500 nM
O=[N+]([O-])c1ccc(C=NNc2nc3ccccc3[nH]2)cc1	> 2500 nM	> 1000 nM	> 1000 nM	> 1000 nM	> 1000 nM	> 1000 nM	> 2500 nM
COc1ccc(C2=C(c3ccc(OC)cc3)C3(c4ccccc4)C(=O)C2(c2ccccc2)C2C(=O)N(c4ccc(C)cc4)C(=O)C23)cc1 (configuration not stated)	> 2500 nM	> 1000 nM	> 1000 nM	> 1000 nM	> 1000 nM	> 1000 nM	> 2500 nM
CCOC(=O)c1c(NC(=O)c2ccccc2)sc2c(O)c(CN(CC)CC)ccc12	> 2500 nM	> 1000 nM	> 1000 nM	> 1000 nM	> 1000 nM	> 1000 nM	> 2500 nM
COc1ccc(C=C2SC(=N)N(c3ccccc3OC)C2=O)cc1	> 2500 nM	> 1000 nM	> 1000 nM	> 1000 nM	> 1000 nM	> 1000 nM	> 2500 nM
COc1ccc(NC(=O)C2c3ccccc3C(=O)N(CC(C)C)C2c2cccs2)cc1Cl (configuration not stated)	> 2500 nM	> 1000 nM	> 1000 nM	> 1000 nM	> 1000 nM	> 1000 nM	> 2500 nM
COc1ccccc1CNC(=O)CCn1c(=O)[nH]c2ccccc2c1=O	> 2500 nM	> 1000 nM	> 1000 nM	> 1000 nM	> 1000 nM	> 1000 nM	> 2500 nM
Oc1ccccc1CNCC12CC3CC(CC(C3)C1)C2	> 2500 nM	> 1000 nM	> 1000 nM	> 1000 nM	> 1000 nM	> 1000 nM	> 2500 nM
CNCCCNc1ccnc2cc(Cl)ccc12	> 2500 nM	> 1000 nM	> 1000 nM	> 1000 nM	> 1000 nM	> 1000 nM	> 2500 nM
CC1CCN(Cc2ccc(NC(=O)c3cc4ccc5cccnc5c4[nH]3)cc2)CC1	> 2500 nM	> 1000 nM	> 1000 nM	> 1000 nM	> 1000 nM	> 1000 nM	> 2500 nM
CSc1ccccc1C(=O)Nc1nc(-c2ccccn2)cs1	> 2500 nM	> 1000 nM	> 1000 nM	> 1000 nM	> 1000 nM	> 1000 nM	> 2500 nM
COc1ccc(C(C)=O)cc1N1C(=O)C2C(C1=O)C1(c3ccccc3)C(=O)C2(c2ccccc2)C(c2ccc(C)cc2)=C1c1ccc(C)cc1 (configuration not stated)	> 2500 nM	> 1000 nM	> 1000 nM	> 1000 nM	> 1000 nM	> 1000 nM	> 2500 nM
